Laboratory results from US20060040884A1, “Antisense oligonucleotides directed to genes regulated by trapoxin-induced HDAC inhibition” (priority 2001, published 2006).
“And” between values parts separate entries of the source, which are not always exact repeats. Equal values may be shown once. Marks after values point to notes of the source that are not given here. Square brackets hold non-standard residues; d marks the D form. Peptide text beside a SMILES is read from it. ξ: configuration not given here. Aoe(9ξ) = N[C@@H](CCCCCC(=O)C1CO1)C(=O)O; dPip = O=C(O)[C@H]1CCCCN1

System: H1299 cells
Experiment: Microarray expression profiling of TPX- vs DMSO-treated H1299 cells (Affymetrix HU6800 and Incyte UniGem V arrays)
Type: cell-based, human
Conditions: 30 nM vs DMSO
Experimental: Cell Culture and Drug Treatments. […] H1299 cells at 60 to 80% confluence are treated with 30 nM TPX dissolved in dimethyl sulphoxide for a final concentration of 0.1% Me2SO in cell culture medium or 0.1% Me2SO for 0, 6, 12, and 18 h.
Incyte cDNA arrays. H1299 cells are treated with 30 nM TPX dissolved in Me2SO or Me2SO for 0, 6, 12 and 18 h. Final Me2SO concentrations were 0.1% in cell culture medium. Total RNA is extracted using TRIZOL reagent (Life Technologies, Rockville, Md.) and purified using RNAeasy reagents (Qiagen, Valencia Calif.). Poly (A)^+ RNA (mRNA) is prepared from total RNA using Oligotex columns (Qiagen, Valencia, Calif.) and the procedure is repeated twice to minimize contamination with ribosomal RNA. The mRNA concentrations are determined using RiboGreen RNA Quantitation kit (Molecular Probes, Eugene, Oreg.) and equal amounts of mRNA from each sample is used in labeling reactions that are performed by Synteni Division of Incyte Genomics, Inc. (Palo Alto, Calif.). Complementary DNAs are prepared by […] and labeled with Cy3-deoxyuridine triphosphate (Cy3) or Cy5-deoxyuridine triphosphate (Cy5) fluorescent nucleotides. cDNA samples from cells that are treated with Me2SO are labeled with Cy3 and the TPX-treated samples are labeled with Cy5. Replicates were labeled with reversed fluorescent labels to accommodate biases attributable to labeling. The Cy3 and Cy5 samples from each time point are combined and hybridized to UniGem […] arrays (Iyer, V. R., et al., (1999) Science 283, 83-87). This array contains cDNAs that represent approximately 7000 human genes.
Affymetrix oligonucleotide arrays. Total RNA and Poly (A)^+ RNA is isolated from TPX or Me2SO-treated H1299 cells essentially as it was for Incyte cDNA arrays. Total RNA is isolated from p21^waf1-10 cells that are grown in the presence or in the absence of tetracycline for 6, 12 and 48 h. 1st strand cDNA synthesis is performed using Superscript Choice System (Life Technologies) and a T7prFB-t30 primer, 5′-AAACGACGGCACA […]-t30-3′ (SEQ ID NO 1). Biotinylated complementary […] is made using the T7 Megascript system (Ambion, Austin, Tex.), substituting NTP labeling-mix containing biotinylated CTP and UTP. The labeled, purified cDNA is fragmented into <50 bp pieces at 95° C. in MgCl2 buffer to-increase the efficiency of hybridization to 20-mer oligos on the arrays. These labeled fragments are hybridized to HU6800 arrays (Affymetrix, Santa Clara, Calif.) as described previously (Lockhart, D. J., et al., (1996) Nat. Biotechnol. 14, 1675-1680; Alon, U. et al., (1999) Proc. Natl. Acad. Sci. U.S.A. 96, 6745-6750). This array represents approximately 7000 human genes. Briefly, samples are hybridized for 16 h at 45° C. with constant rotation at 60 rpm. The arrays are washed and stained using an Affymetrix fluidics station. The stain included streptavidin-phycoerythrin (10 μg/ml; Molecular Probes, Eugene, Oreg.) and biotinylated goat anti-streptavidin (3 μg/ml; Vector Laboratories, Burlingame, Calif.).
Imaging and Data Analysis. Affymetrix arrays are scanned with a HP argon-ion laser confocal microscope, with a 488 nm […] and detection at 570 nm. Affymetrix fold changes are calculated using GeneChip 3.3 software (Affymetrix). Incyte Pharmaceutical Inc. uses a laser confocal microscope to determine the fluorescence intensities from Incyte cDNA arrays. The fluorescent images (Cy3 and Cy5) from the Incyte cDNA arrays are normalized to total fluorescence from each channel for all genes for labeling efficiency differences and considered the normalized data is used for calculation of the gene expression ratios.

## O=C(CCCCC[C@@H]1NC(=O)[C@H]2CCCCN2C(=O)[C@H](Cc2ccccc2)NC(=O)[C@H](Cc2ccccc2)NC1=O)C1CO1 (stereo partly drawn) [TPX, Trapoxin A] (cyclo(FF[dPip][Aoe(9ξ)]))
12 h
  Fold change, D85429 Hsp 40: 4.8^8 fold and 5.3^8 fold
  Fold change, J03909 γ-IFN-inducible, IP-30: 4.7^7 fold and 5.2^8 fold
  Fold change, L03840 Fibroblast growth factor receptor: 3.2* fold and 4.9^1 fold
  Fold change, L32976 Mixed lineage kinase-3: −2.4* fold
  Fold change, M12174 RhoB: 5.2^8 fold and 4.5^8 fold
  Fold change, M16938 Homeobox C8: NC (<2 fold change in expression level (NC))
  Fold change, M55153 Transglutaminase 2: NC (<2 fold change in expression level (NC))
  Fold change, M59828 Hsp 70: NC (<2 fold change in expression level (NC))
  Fold change, M76125 Tyrosine kinase receptor (TKR) axl: NC (<2 fold change in expression level (NC))
  Fold change, M80244 Human E16: NC (<2 fold change in expression level (NC))
  Fold change, M86406 Actinin: 2.1 fold and 2.4 fold
  Fold change, NM006603 Stromal antigen 2: NC (<2 fold change in expression level (NC))
  Fold change, U03057 Actin-bundling protein: 2.4^7 fold and 2.0^7 fold
  Fold change, U09578 MAKAP kinase (3 pk): NC (<2 fold change in expression level (NC))
  Fold change, U09579 p21waf1 (1st line): 10.5^8 fold and 7.0^8 fold
  Fold change, U09579 p21waf1 (2nd line): 3.4 fold and 3.6 fold
  Fold change, U09937 Upa receptor (UpaR) (1st line): NC (<2 fold change in expression level (NC))
  Fold change, U14750 Connective tissue growth factor: 5.6 fold and 3.5 fold
  Fold change, U15782 Cleavage stimulation factor 3: NC (<2 fold change in expression level (NC))
  Fold change, U25804 Caspase-4: NC (<2 fold change in expression level (NC))
  Fold change, U30827 Srp40: NC (<2 fold change in expression level (NC))
  Fold change, U31875 Hep27: 11.2^8 fold and 12.3^8 fold
  Fold change, U32519 GAP SH3 binding protein: 8.3^8 fold and 4.3^3 fold
  Fold change, U48795 Cathelicidin antimicrobial peptide: 8.5 fold
  Fold change, U56833 VBP-1: NC (<2 fold change in expression level (NC))
  Fold change, U77413 O-linked-N-acetylglucosamine transferase: NC (<2 fold change in expression level (NC))
  Fold change, U84214 Defender against cell death 1: 2.5 fold and 2.0 fold
  Fold change, X03473 Histone H1 (0) [Chromatin remodeling]: 12.0^8 fold and 11.9^8 fold
  Fold change, X03473 Histone H1 (0) [Differentiation]: 12.0^8 fold and 11.9^8 fold
  Fold change, X04429 Plasminogen activator inhibitor 1: NC (<2 fold change in expression level (NC))
  Fold change, X16396 NAD-dependent methylene teterahydrofolate dehydrogenase-methylenyltetrahydrofolate cyclohydrolase: NC (<2 fold change in expression level (NC))
  Fold change, X37547 Inhibitor of apoptisis homolog C: NC (<2 fold change in expression level (NC))
  Fold change, X53586 Integrin α-6: NC (<2 fold change in expression level (NC))
  Fold change, X55740 5′-nucleotidase: NC (<2 fold change in expression level (NC))
  Fold change, X66029 TKR axl: NC (<2 fold change in expression level (NC))
  Fold change, X78687 G9 sialidase: 4.3^8 fold and 4.5^8 fold
18 h
  Fold change, A1581499 Apoptosis inhibitor 2: NC (<2 fold change in expression level (NC))
  Fold change, AB011146 KIAA0574, similar to an RNA binding protein: NC (<2 fold change in expression level (NC))
  Fold change, AF012086 RAN-binding protein 2-like: NC (<2 fold change in expression level (NC))
  Fold change, AF052578 RAN [Small GTP-ases]: 2.5 fold and 3.3 fold
  Fold change, AF109161 p35srj [Stress]: 3.4 fold and 3.3 fold
  Fold change, AF109161 p35srj [Transformation and TKRs]: 3.4 fold and 3.3 fold
  Fold change, AL047358 Insulin-induced gene 1: 2.0 fold and 2.9 fold
  Fold change, AL047358 Spermidine/spermine N1-acetyltransferase: 2.3 fold and 3.4 fold
  Fold change, D31764 Eph1B-like tyrosine kinase receptor: NC (<2 fold change in expression level (NC))
  Fold change, D50525 TI-227H: NC (<2 fold change in expression level (NC))
  Fold change, D85429 Hsp 40: 17.1^8 fold and 15.6^8 fold
  Fold change, J03909 γ-IFN-inducible, IP-30: 17.1^8 fold and 15.6^8 fold
  Fold change, L03840 Fibroblast growth factor receptor: 3.7 fold and 4.4 fold
  Fold change, M12174 RhoB: 6.2^8 fold and 6.1^8 fold
  Fold change, M55153 Transglutaminase 2: 2.1 fold and 2.6 fold
  Fold change, M58286 TNF Receptor: NC (<2 fold change in expression level (NC))
  Fold change, M59828 Hsp 70: NC (<2 fold change in expression level (NC))
  Fold change, M80899 AHNAK nucleoprotein/desmoykin: NC (<2 fold change in expression level (NC))
  Fold change, M86406 Actinin: NC (<2 fold change in expression level (NC))
  Fold change, U03057 Actin-bundling protein: NC (<2 fold change in expression level (NC))
  Fold change, U09579 p21waf1 (1st line): 3.8* fold and 4.0* fold
  Fold change, U09579 p21waf1 (2nd line): 2.7 fold and 3.1 fold
  Fold change, U14750 Connective tissue growth factor: 3.6 fold and 4.5 fold
  Fold change, U19261 Epstein-Barr-induced LMP1: NC (<2 fold change in expression level (NC))
  Fold change, U28749 High mobility group phosphoprotein I-C (HMGI-C) (1st line): NC (<2 fold change in expression level (NC))
  Fold change, U30827 Srp40: NC (<2 fold change in expression level (NC))
  Fold change, U31875 Hep27: 7.1^8 fold and 8.3^8 fold
  Fold change, U32519 GAP SH3 binding protein: 4.6^8 fold and 4.2^8 fold
  Fold change, U48795 Cathelicidin antimicrobial peptide: NC (<2 fold change in expression level (NC))
  Fold change, U68019 hMAD3: NC (<2 fold change in expression level (NC))
  Fold change, U79285 Clone 23828: NC (<2 fold change in expression level (NC))
  Fold change, U84214 Defender against cell death 1: NC (<2 fold change in expression level (NC))
  Fold change, X03473 Histone H1 (0) [Chromatin remodeling]: 3.4* fold and 3.6* fold
  Fold change, X03473 Histone H1 (0) [Differentiation]: 3.4* fold and 3.6* fold
  Fold change, X37546 Inhibitor of apoptisis homolog B: NC (<2 fold change in expression level (NC))
  Fold change, X78687 G9 sialidase: 3.3^8 fold and 2.6^8 fold
